Reference: US6737383B1, “Herbicidal oxadiazolidines” (priority 1999, dated 2004)

Assays:
giant foxtail = assay: Test B pre/postemergence giant foxtail; format: in vivo, Setaria faberii
In short: (§1)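 Herbicidal effect was estimated by eye on a ten-point control scale after plants spent twelve to sixteen days in a greenhouse following soil or foliar treatment. Foliar sprays targeted plants at one to four leaves; all doses were formulated in a non-phytotoxic solvent with surfactant.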

bedstraw = assay: Test B pre/postemergence bedstraw; format: in vivo, Galium aparine
In short: as §1

surinam grass = assay: Test B pre/postemergence surinam grass; format: in vivo, Brachiaria decumbens
In short: as §1

wheat = assay: Test B pre/postemergence wheat; format: in vivo, Triticum aestivum
In short: as §1

rape = assay: Test B pre/postemergence rape; format: in vivo, Brassica napus
In short: as §1

morningglory = assay: Test B pre/postemergence morningglory; format: in vivo, Ipomoea hederacea
In short: as §1

soybean = assay: Test B pre/postemergence soybean; format: in vivo, Glycine max
In short: as §1

corn = assay: Test B pre/postemergence corn; format: in vivo, Zea mays
In short: as §1

velvetleaf = assay: Test B pre/postemergence velvetleaf; format: in vivo, Abutilon theophrasti
In short: as §1

crabgrass = assay: Test B pre/postemergence crabgrass; format: in vivo, Digitaria sanguinalis
In short: as §1

pigweed = assay: Test B pre/postemergence pigweed; format: in vivo, Amaranthus retroflexus
In short: as §1

purple nutsedge = assay: Test B pre/postemergence purple nutsedge; format: in vivo, Cyperus rotundus
In short: as §1

sugar beet = assay: Test B pre/postemergence sugar beet; format: in vivo, Beta vulgaris
In short: as §1

cocklebur = assay: Test B pre/postemergence cocklebur; format: in vivo, Xanthium strumarium
In short: as §1

blackgrass = assay: Test B pre/postemergence blackgrass; format: in vivo, Alopecurus myosuroides
In short: as §1

wild oat = assay: Test B pre/postemergence wild oat; format: in vivo, Avena fatua
In short: as §1

[1] = Postemergence, Rate 31 g/ha, visual rating, scale 0 to 10 (0 no effect, 10 complete control)
[2] = Postemergence, Rate 125 g/ha, scale 0 to 10, 0 is no effect, 10 is complete control
[3] = Postemergence, Rate 250 g/ha, scale 0 to 10, 0 is no effect, 10 is complete control
[4] = Preemergence, Rate 62 g/ha, scale 0 to 10 (0 no effect, 10 complete control)
[5] = Preemergence, Rate 250 g/ha, scale of 0 to 10 where 0 is no effect and 10 is complete control
[6] = Rate 62 g/ha, Postemergence, scale of 0 to 10 where 0 is no effect and 10 is complete control
[7] = Preemergence, Rate 31 g/ha, visual rating, scale 0 to 10 (0 no effect, 10 complete control)

CC(C)N(C(=O)n1oc(=O)n(C2(C)CC2)c1=O)c1ccc(F)cc1 [Compound 362]
1: B. signalgrass plant response rating (surinam grass; [1]) | Plant response rating, Morningglory (morningglory; [2]) | Plant response rating, Morningglory (morningglory; [3]) | Morningglory plant response rating (morningglory; [6]) | Soybean plant response rating (0 to 10 scale) (soybean; Preemergence, Rate 125 g/ha) | Velvetleaf plant response rating (velvetleaf; [6])
7: Plant response rating, B. signalgrass (surinam grass; [3]) | B. signalgrass plant response rating (surinam grass; [5]) | Plant response rating, Wheat (wheat; [4]) | Plant response rating, Velvetleaf (velvetleaf; [3]) | Sugarbeets plant response rating (0 to 10 scale) (sugar beet; Preemergence, Rate 125 g/ha) | Plant response rating, Wild oats (wild oat; [4])
3: Rape plant response rating (0 to 10 scale) (rape; Preemergence, Rate 125 g/ha) | Corn plant response rating (0 to 10 scale) (corn; Preemergence, Rate 125 g/ha) | Crabgrass plant response rating (crabgrass; [1]) | Crabgrass plant response rating (crabgrass; [6]) | Nutsedge plant response rating (purple nutsedge; [5]) | Wild oats plant response rating (wild oat; [6])
9: Plant response rating, Giant foxtail (giant foxtail; [3]) | Plant response rating, Bedstraw (bedstraw; [2]) | Plant response rating, Bedstraw (bedstraw; [3]) | Plant response rating, Bedstraw (bedstraw; [4]) | Bedstraw plant response rating (0 to 10 scale) (bedstraw; Preemergence, Rate 125 g/ha) | Corn plant response rating (corn; [5]) | Plant response rating, Blackgrass (blackgrass; [4])
6: Giant foxtail plant response rating (giant foxtail; [6]) | B. signalgrass plant response rating (0 to 10 scale, 0 is no effect, 10 is complete control) (surinam grass; Preemergence, Rate 125 g/ha) | Plant response rating, Wheat (wheat; [3]) | Rape plant response rating (rape; [5]) | Morningglory plant response rating (morningglory; [5]) | Plant response rating, Soybean (soybean; [3]) | Soybean plant response rating (soybean; [5]) | Velvetleaf plant response rating (0 to 10 scale) (velvetleaf; Preemergence, Rate 125 g/ha) | Velvetleaf plant response rating (velvetleaf; [5]) | Plant response rating, Crabgrass (crabgrass; [2]) | Plant response rating, Crabgrass (crabgrass; [3]) | Plant response rating, Redroot pigweed (pigweed; [3]) | Plant response rating, Wild oats (wild oat; [2]) | Plant response rating, Wild oats (wild oat; [3])
0: Wheat plant response rating (wheat; [1]) | Rape plant response rating (rape; [1]) | Plant response rating, Rape (rape; [2]) | Plant response rating, Rape (rape; [3]) | Plant response rating, Rape (rape; [4]) | Rape plant response rating (rape; [6]) | Morningglory plant response rating (morningglory; [1]) | Plant response rating, Morningglory (morningglory; [4]) | Plant response rating, Soybean (soybean; [4]) | Corn plant response rating (corn; [1]) | Plant response rating, Corn (corn; [2]) | Plant response rating, Corn (corn; [3]) | Corn plant response rating (corn; [7]) | Plant response rating, Corn (corn; [4]) | Corn plant response rating (corn; [6]) | Velvetleaf plant response rating (velvetleaf; [1]) | Redroot pigweed plant response rating (pigweed; [1]) | Nutsedge plant response rating (purple nutsedge; [1]) | Plant response rating, Nutsedge (purple nutsedge; [2]) | Plant response rating, Nutsedge (purple nutsedge; [3]) | Plant response rating, Nutsedge (purple nutsedge; [4]) | Nutsedge plant response rating (0 to 10 scale) (purple nutsedge; Preemergence, Rate 125 g/ha) | Nutsedge plant response rating (purple nutsedge; [6]) | Sugarbeets plant response rating (sugar beet; [1]) | Plant response rating, Sugarbeets (sugar beet; [2]) | Sugarbeets plant response rating (sugar beet; [6]) | Cocklebur plant response rating (cocklebur; [1]) | Plant response rating, Cocklebur (cocklebur; [2]) | Cocklebur plant response rating (cocklebur; [7]) | Plant response rating, Cocklebur (cocklebur; [4]) | Cocklebur plant response rating (0 to 10 scale) (cocklebur; Preemergence, Rate 125 g/ha) | Cocklebur plant response rating (cocklebur; [5]) | Cocklebur plant response rating (cocklebur; [6]) | Wild oats plant response rating (wild oat; [1])
2: B. signalgrass plant response rating (surinam grass; [7]) | B. signalgrass plant response rating (surinam grass; [6]) | Wheat plant response rating (wheat; [6]) | Redroot pigweed plant response rating (pigweed; [6]) | Plant response rating, Sugarbeets (sugar beet; [3])
8: Plant response rating, Giant foxtail (giant foxtail; [2]) | Bedstraw plant response rating (bedstraw; [7]) | Wheat plant response rating (0 to 10 scale) (wheat; Preemergence, Rate 125 g/ha) | Wheat plant response rating (wheat; [5]) | Crabgrass plant response rating (0 to 10 scale) (crabgrass; Preemergence, Rate 125 g/ha) | Crabgrass plant response rating (crabgrass; [5]) | Plant response rating, Redroot pigweed (pigweed; [4]) | Sugarbeets plant response rating (sugar beet; [5]) | Blackgrass plant response rating (blackgrass; [1]) | Plant response rating, Blackgrass (blackgrass; [2]) | Plant response rating, Blackgrass (blackgrass; [3]) | Blackgrass plant response rating (blackgrass; [7]) | Blackgrass plant response rating (blackgrass; [6])
4: Plant response rating, B. signalgrass (surinam grass; [4]) | Plant response rating, Wheat (wheat; [2]) | Morningglory plant response rating (0 to 10 scale) (morningglory; Preemergence, Rate 125 g/ha) | Soybean plant response rating (soybean; [1]) | Soybean plant response rating (soybean; [6]) | Plant response rating, Velvetleaf (velvetleaf; [2]) | Plant response rating, Velvetleaf (velvetleaf; [4]) | Plant response rating, Redroot pigweed (pigweed; [2])
5: Giant foxtail plant response rating (giant foxtail; [1]) | Bedstraw plant response rating (bedstraw; [1]) | Bedstraw plant response rating (bedstraw; [6]) | Plant response rating, B. signalgrass (surinam grass; [2]) | Plant response rating, Soybean (soybean; [2]) | Plant response rating, Crabgrass (crabgrass; [4]) | Plant response rating, Sugarbeets (sugar beet; [4])
10: Plant response rating, Giant foxtail (giant foxtail; [4]) | Giant foxtail plant response rating (0 to 10 scale) (giant foxtail; Preemergence, Rate 125 g/ha) | Giant foxtail plant response rating (giant foxtail; [5]) | Bedstraw plant response rating (bedstraw; [5]) | Redroot pigweed plant response rating (0 to 10 scale) (pigweed; Preemergence, Rate 125 g/ha) | Redroot pigweed plant response rating (pigweed; [5]) | Blackgrass plant response rating (0 to 10 scale) (blackgrass; Preemergence, Rate 125 g/ha) | Blackgrass plant response rating (blackgrass; [5]) | Wild oats plant response rating (0 to 10 scale) (wild oat; Preemergence, Rate 125 g/ha) | Wild oats plant response rating (wild oat; [5])
